According to patent US10597388B2, “Pyridazinone herbicides” (FMC CORPORATION, priority 2014, dated 2020):

Experiments:
Experiment in all cases: Test E greenhouse herbicide test, pre- and postemergence
Assay type in all cases: in vivo
[1] = tested on: arrowleaf sida (Sida rhombifolia)
Procedure, shortened: (§1)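 Seedlings reaching 2–18 cm (1- to 4-leaf stage) received foliar treatment, while seeds in silt loam received a soil surface spray; the vehicle in each case was a non-phytotoxic solvent mixture including surfactant. Visual scoring versus controls followed 14–21 d later on a 0–100 scale.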

[2] = tested on: barnyardgrass (Echinochloa crus-galli)
Procedure, shortened: as §1

corn (Zea mays) = tested on: corn (Zea mays)
Procedure, shortened: as §1

[3] = tested on: crabgrass, Brazilian (Brazilian crabgrass, Digitaria horizontalis)
Procedure, shortened: as §1

[4] = tested on: dayflower (Virginia (VA) dayflower, Commelina virginica)
Procedure, shortened: as §1

[5] = tested on: field bindweed (Convolvulus arvensis)
Procedure, shortened: as §1

[6] = tested on: foxtail, green (green foxtail, Setaria viridis); conditions: Preemergence
Procedure, shortened: as §1

[7] = tested on: goosegrass (Eleusine indica); conditions: Preemergence
Procedure, shortened: as §1

[8] = tested on: horseweed (Conyza canadensis)
Procedure, shortened: as §1

[9] = tested on: lambsquarters (Chenopodium album); conditions: Preemergence
Procedure, shortened: as §1

[10] = tested on: nightshade (eastern black nightshade, Solanum ptycanthum); conditions: Preemergence
Procedure, shortened: as §1

[11] = tested on: panicum, fall (fall panicum, Panicum dichotomiflorum)
Procedure, shortened: as §1

[12] = tested on: pigweed, palmer (palmer pigweed, Amaranthus palmeri)
Procedure, shortened: as §1

[13] = tested on: ragweed (common ragweed, Ambrosia elatior)
Procedure, shortened: as §1

soybean (Glycine max) = tested on: soybean (Glycine max)
Procedure, shortened: as §1

[14] = tested on: surinam grass (Brachiaria decumbens); conditions: Preemergence
Procedure, shortened: as §1

[15] = 62 g ai/ha, Postemergence, scale 0 to 100 (0 no effect, 100 complete control)
[16] = 62 g ai/ha, Preemergence, scale 0 to 100 (0 no effect, 100 complete control)
[17] = 125 g ai/ha, Postemergence, scale 0 to 100 (0 no effect, 100 complete control)
[18] = 125 g ai/ha, Preemergence, scale 0 to 100 (0 no effect, 100 complete control)
[19] = 250 g ai/ha, Postemergence, scale 0 to 100 (0 no effect, 100 complete control)
[20] = Postemergence, 31 g ai/ha, visual, scale 0 no effect to 100 complete control
[21] = Preemergence, 31 g ai/ha, scale 0 to 100, 0 no effect, 100 complete control
[22] = Preemergence, 250 g ai/ha, visual, scale 0 no effect to 100 complete control
[23] = 62 g ai/ha, scale 0 to 100 (0 no effect, 100 complete control)
[24] = 125 g ai/ha, scale 0 to 100 (0 no effect, 100 complete control)
[25] = 31 g ai/ha, scale 0 to 100, 0 no effect, 100 complete control
[26] = 250 g ai/ha, visual, scale 0 no effect to 100 complete control

Question: With `CCOC(=O)Oc1c(C)nn(C)c(=O)c1-c1c(C)sc2ccc(C)cc12` [Compound 82] as the compound, how does the “Plant response rating, Arrowleaf Sida” value [1, 15] read?
Answer: 70

Question: What about the “Plant response rating, Arrowleaf Sida” value [1, 16] of the same compound?
Answer: 70

Question: And the “Plant response rating, Arrowleaf Sida” value [1, 17]?
Answer: 80

Question: What about the “Plant response rating, Arrowleaf Sida” value [1, 18] of the same compound?
Answer: 85

Question: What about the “Plant response rating, Arrowleaf Sida” value [1, 19] of the same compound?
Answer: 90

Question: And the “Plant response rating, Arrowleaf Sida” value [1, 20]?
Answer: 65

Question: And the “Plant response rating, Arrowleaf Sida” value [1, 21]?
Answer: 20

Question: And the “Plant response rating, Arrowleaf Sida” value [1, 22]?
Answer: 95

Question: What about the “Plant response rating, Barnyardgrass” value [2, 15] of the same compound?
Answer: 40

Question: And the “Plant response rating, Barnyardgrass” value [2, 16]?
Answer: 15

Question: What about the “Plant response rating, Barnyardgrass” value [2, 17] of the same compound?
Answer: 50

Question: And the “Plant response rating, Barnyardgrass” value [2, 18]?
Answer: 30

Question: And the “Plant response rating, Barnyardgrass” value [2, 19]?
Answer: 50

Question: What about the “Plant response rating, Barnyardgrass” value [2, 20] of the same compound?
Answer: 30

Question: What about the “Plant response rating, Barnyardgrass” value [2, 21] of the same compound?
Answer: 0

Question: And the “Plant response rating, Barnyardgrass” value [2, 22]?
Answer: 40

Question: What about the “Plant response rating, Corn” value (corn (Zea mays); [15]) of the same compound?
Answer: 0

Question: And the “Plant response rating, Corn” value (corn (Zea mays); [16])?
Answer: 0

Question: And the “Plant response rating, Corn” value (corn (Zea mays); [17])?
Answer: 0

Question: What about the “Plant response rating, Corn” value (corn (Zea mays); [18]) of the same compound?
Answer: 0

Question: And the “Plant response rating, Corn” value (corn (Zea mays); [19])?
Answer: 0

Question: And the “Plant response rating, Corn” value (corn (Zea mays); [20])?
Answer: 0

Question: And the “Plant response rating, Corn” value (corn (Zea mays); [21])?
Answer: 0

Question: What about the “Plant response rating, Corn” value (corn (Zea mays); [22]) of the same compound?
Answer: 5

Question: And the “Plant response rating, Crabgrass, Brazil” value [3, 15]?
Answer: 30

Question: What about the “Plant response rating, Crabgrass, Brazil” value [3, 16] of the same compound?
Answer: 100

Question: What about the “Plant response rating, Crabgrass, Brazil” value [3, 17] of the same compound?
Answer: 50

Question: And the “Plant response rating, Crabgrass, Brazil” value [3, 18]?
Answer: 100

Question: What about the “Plant response rating, Crabgrass, Brazil” value [3, 19] of the same compound?
Answer: 50

Question: And the “Plant response rating, Crabgrass, Brazil” value [3, 20]?
Answer: 20

Question: And the “Plant response rating, Crabgrass, Brazil” value [3, 21]?
Answer: 75

Question: What about the “Plant response rating, Crabgrass, Brazil” value [3, 22] of the same compound?
Answer: 100

Question: And the “Plant response rating, Dayflower, VA” value [4, 15]?
Answer: 50

Question: And the “Plant response rating, Dayflower, VA” value [4, 16]?
Answer: 5

Question: What about the “Plant response rating, Dayflower, VA” value [4, 17] of the same compound?
Answer: 60

Question: And the “Plant response rating, Dayflower, VA” value [4, 18]?
Answer: 5

Question: What about the “Plant response rating, Dayflower, VA” value [4, 19] of the same compound?
Answer: 65

Question: What about the “Plant response rating, Dayflower, VA” value [4, 20] of the same compound?
Answer: 40

Question: What about the “Plant response rating, Dayflower, VA” value [4, 21] of the same compound?
Answer: 0

Question: And the “Plant response rating, Dayflower, VA” value [4, 22]?
Answer: 35

Question: What about the “Plant response rating, Field Bindweed” value [5, 15] of the same compound?
Answer: 80

Question: What about the “Plant response rating, Field Bindweed” value [5, 16] of the same compound?
Answer: 50

Question: And the “Plant response rating, Field Bindweed” value [5, 17]?
Answer: 95

Question: What about the “Plant response rating, Field Bindweed” value [5, 18] of the same compound?
Answer: 100

Question: What about the “Plant response rating, Field Bindweed” value [5, 19] of the same compound?
Answer: 85

Question: And the “Plant response rating, Field Bindweed” value [5, 20]?
Answer: 85

Question: What about the “Plant response rating, Field Bindweed” value [5, 21] of the same compound?
Answer: 65

Question: And the “Plant response rating, Field Bindweed” value [5, 22]?
Answer: 95

Question: And the “Plant response rating, Foxtail, Green” value [6, 23]?
Answer: 70

Question: And the “Plant response rating, Foxtail, Green” value [6, 24]?
Answer: 75

Question: And the “Plant response rating, Foxtail, Green” value [6, 25]?
Answer: 20

Question: What about the “Plant response rating, Foxtail, Green” value [6, 26] of the same compound?
Answer: 90

Question: And the “Plant response rating, Goosegrass” value [7, 23]?
Answer: 25

Question: And the “Plant response rating, Goosegrass” value [7, 24]?
Answer: 70

Question: What about the “Plant response rating, Goosegrass” value [7, 25] of the same compound?
Answer: 20

Question: What about the “Plant response rating, Goosegrass” value [7, 26] of the same compound?
Answer: 90

Question: What about the “Plant response rating, Horseweed” value [8, 15] of the same compound?
Answer: 70

Question: And the “Plant response rating, Horseweed” value [8, 16]?
Answer: 100

Question: And the “Plant response rating, Horseweed” value [8, 17]?
Answer: 75

Question: What about the “Plant response rating, Horseweed” value [8, 18] of the same compound?
Answer: 100

Question: What about the “Plant response rating, Horseweed” value [8, 19] of the same compound?
Answer: 80

Question: What about the “Plant response rating, Horseweed” value [8, 20] of the same compound?
Answer: 60

Question: And the “Plant response rating, Horseweed” value [8, 21]?
Answer: 90

Question: And the “Plant response rating, Horseweed” value [8, 22]?
Answer: 100

Question: And the “Plant response rating, Lambsquarters” value [9, 23]?
Answer: 75

Question: What about the “Plant response rating, Lambsquarters” value [9, 24] of the same compound?
Answer: 100

Question: What about the “Plant response rating, Lambsquarters” value [9, 25] of the same compound?
Answer: 98

Question: And the “Plant response rating, Lambsquarters” value [9, 26]?
Answer: 100

Question: And the “Plant response rating, Nightshade” value [10, 23]?
Answer: 98

Question: What about the “Plant response rating, Nightshade” value [10, 24] of the same compound?
Answer: 98

Question: And the “Plant response rating, Nightshade” value [10, 25]?
Answer: 90

Question: And the “Plant response rating, Nightshade” value [10, 26]?
Answer: 100

Question: And the “Plant response rating, Panicum, Fall” value [11, 15]?
Answer: 65

Question: And the “Plant response rating, Panicum, Fall” value [11, 16]?
Answer: 95

Question: What about the “Plant response rating, Panicum, Fall” value [11, 17] of the same compound?
Answer: 75

Question: And the “Plant response rating, Panicum, Fall” value [11, 18]?
Answer: 98

Question: What about the “Plant response rating, Panicum, Fall” value [11, 19] of the same compound?
Answer: 75

Question: What about the “Plant response rating, Panicum, Fall” value [11, 20] of the same compound?
Answer: 70

Question: And the “Plant response rating, Panicum, Fall” value [11, 21]?
Answer: 90

Question: And the “Plant response rating, Panicum, Fall” value [11, 22]?
Answer: 100

Question: What about the “Plant response rating, Pigweed, Palmer” value [12, 15] of the same compound?
Answer: 60

Question: What about the “Plant response rating, Pigweed, Palmer” value [12, 16] of the same compound?
Answer: 90

Question: What about the “Plant response rating, Pigweed, Palmer” value [12, 17] of the same compound?
Answer: 75

Question: And the “Plant response rating, Pigweed, Palmer” value [12, 18]?
Answer: 100

Question: What about the “Plant response rating, Pigweed, Palmer” value [12, 19] of the same compound?
Answer: 65

Question: And the “Plant response rating, Pigweed, Palmer” value [12, 20]?
Answer: 50

Question: And the “Plant response rating, Pigweed, Palmer” value [12, 21]?
Answer: 90

Question: And the “Plant response rating, Pigweed, Palmer” value [12, 22]?
Answer: 100

Question: And the “Plant response rating, Ragweed” value [13, 15]?
Answer: 90

Question: What about the “Plant response rating, Ragweed” value [13, 16] of the same compound?
Answer: 80

Question: And the “Plant response rating, Ragweed” value [13, 17]?
Answer: 90

Question: And the “Plant response rating, Ragweed” value [13, 18]?
Answer: 100

Question: And the “Plant response rating, Ragweed” value [13, 19]?
Answer: 90

Question: What about the “Plant response rating, Ragweed” value [13, 20] of the same compound?
Answer: 85

Question: What about the “Plant response rating, Ragweed” value [13, 21] of the same compound?
Answer: 85

Question: And the “Plant response rating, Ragweed” value [13, 22]?
Answer: 100

Question: What about the “Plant response rating, Soybean” value (soybean (Glycine max); [16]) of the same compound?
Answer: 0

Question: What about the “Plant response rating, Soybean” value (soybean (Glycine max); [17]) of the same compound?
Answer: 40

Question: And the “Plant response rating, Soybean” value (soybean (Glycine max); [18])?
Answer: 0

Question: What about the “Plant response rating, Soybean” value (soybean (Glycine max); [19]) of the same compound?
Answer: 35

Question: What about the “Plant response rating, Soybean” value (soybean (Glycine max); [20]) of the same compound?
Answer: 10

Question: And the “Plant response rating, Soybean” value (soybean (Glycine max); [21])?
Answer: 0

Question: What about the “Plant response rating, Surinam Grass” value [14, 23] of the same compound?
Answer: 65

Question: And the “Plant response rating, Surinam Grass” value [14, 24]?
Answer: 85

Question: And the “Plant response rating, Surinam Grass” value [14, 25]?
Answer: 35

Question: And the “Plant response rating, Surinam Grass” value [14, 26]?
Answer: 90
